Assay results reported in US4118482A (priority 1977, dated 1978).
Read-outs that look alike come from different tables or passages of the source. Numbered stars: 1 amine (or outer) side, 2 acyl side, 3 side chain; on linkers, the order of the positions; unused ones are H or OH. Bridge positions count the residues as written; N and C are the ends. Square brackets hold non-standard residues; d marks the D form. Peptide text beside a SMILES is read from it. I, II: the chains in the order shown. Actinocin(9to1) = Cc1c2oc3c(C)ccc(C(=O)[*:1])c3nc-2c(C(=O)[*:2])c(N)c1=O; NMeV = CN[CH](C(=O)O)C(C)C; Aze = O=C(O)[CH]1CCN1; Sar = CNCC(=O)O

Columns and labels:
[1] = tested on: advanced Ridgeway osteogenic sarcoma; conditions: cited from earlier work
[2] = Toxicity per mg compared with Actinomicin D
[3] = Storage stability in aqueous solution; type: physicochemical; conditions: 0°-25° C, pH range of 5-8, maintained in the dark
Description: The major products of interest were determined to be Azetomicin I and Azetomycin II. They were stable after storage at 0°-25° C in aqueous solution in the pH range of 5-8 for at least 5 days when maintained in the dark.

P388 leukemia = P388 leukemia in mice, treatment QD at days 1-9 (National Cancer Institute screen); type: in vivo; conditions: for 5 ILS* (increased life span) / 60 DAY "CURES" / SURVIAL TIME MEDIAN: QD days 1-9, P388 mice; for SURVIAL TIME MEDIAN: controls 10 days
From the text: (§1) The National Cancer Institute conducted a screening test on samples of both Azetomicin I (3' prolyl, 3' azet) and Azetomicin II (3', 3' azet) as well as on Dactinomycin (3', 3' prolyl) that is also known as Actinomycin D or C1. The Azetomicin and Dactinomycin molecules are identical, with the exception of the 3' amino acid position on the peptides, wherein the 3' positions, in the case of Dactinomycin are both prolyl; in the case of the Azetomicin I are prolyl and azetidine-2-carboxyl; and in the cae of Azetomicin II are both azetidine-2-carboxyl.
P 388 LEUKEMIA : QD AT DAYS 1-9 TREATMENT

[4] = tested on: Bacillus subtilis, Staphylococcus aureus and Staphylococcus albus; test: Inhibition of bacterial growth (cross section of gram-positive and gram-negative bacteria); type: cell-based
Rous sarcoma virus = test: Development of visible tumors in chicks infected with Rous sarcoma virus, single injection; type: in vivo; conditions: injected once; compared with untreated or saline injected controls
Description: In another test, both Azetomicin I and Azetomicin II, were injected once into chicks infected with Rous sarcoma virus. The development of visible tumors was decreased by over 80% as compared with untreated or saline injected controls.

ADVANCED P388 LEUKEMIA = test: Advanced P388 leukemia in mice, treatment Q4D x 3 at days 5, 9, 13; type: in vivo; conditions: Q4D x 3 days 5, 9, 13, advanced P388; for SURVIAL TIME MEDIAN: controls 10 days
From the text: as §1
ADVANCED P388 LEUKEMIA : Q4D × 3 AT DAYS 5, 9, 13 TREATMENT

[5] = schedule day 12, data of Southern Research Institute

## COc1cccc2c1C(=O)c1c(O)c3c(c(O)c1C2=O)C[C@@](O)(C(=O)CO)C[C@@H]3O[C@H]1C[C@H](N)[C@H](O)[C@H](C)O1 [ADRIAMYCIN]
[1]; [5]
  "CURES" (Number/Total): 0/8
  REGRESSION 50+%-PARTIAL (Number/Total): 7/8
  REGRESSION COMPLETE (Number/Total): 7/8

## Nc1ccn([C@@H]2O[C@H](CO)[C@@H](O)[C@@H]2O)c(=O)n1 [ARA-C]
[1]; schedule days 12,12,20(q3h)
  "CURES" (Number/Total): 0/10
  REGRESSION 50+%-PARTIAL (Number/Total): 7/10
  REGRESSION COMPLETE (Number/Total): 3/10

## Nc1ncn([C@@H]2O[C@H](CO)[C@@H](O)[C@H]2O)c(=O)n1 [AZACYTIDINE]
[1]; schedule days 12,16,20,24
  "CURES" (Number/Total): 0/7
  REGRESSION 50+%-PARTIAL (Number/Total): 0/7
  REGRESSION COMPLETE (Number/Total): 0/7

## Cc1c2oc3c(C)ccc(C(=O)NC4C(=O)NC(C(C)C)C(=O)N5CCC5C(=O)N(C)CC(=O)N(C)C(C(C)C)C(=O)OC4C)c3nc-2c(C(=O)NC2C(=O)NC(C(C)C)C(=O)N3CCC3C(=O)N(C)CC(=O)N(C)C(C(C)C)C(=O)OC2C)c(N)c1=O (centres unmarked) [AZETOMICIN-II, Azetomicin II] (I: TV[Aze][Sar][NMeV] / II: TV[Aze][Sar][NMeV]; ester I:1-I:C, II:1-II:C; linker I:N-II:N via Actinocin(9to1); configuration not given here)
[2]
  toxicity/mg. compared with Actinomicin D: substantially less toxic/mg.
[3]
  time stable after storage in aqueous solution: at least 5 days
P388 leukemia; 0.05 Mg/Kg/Inj.
  5 ILS* (increased life span): 125%
  60 DAY "CURES": 0%
  SURVIAL TIME MEDIAN: 22.5 days
P388 leukemia; 0.1 Mg/Kg/Inj.
  5 ILS* (increased life span): 130%
  60 DAY "CURES": 12%
  SURVIAL TIME MEDIAN: 23 days
P388 leukemia; P388 leukemia mice, Table I
  activity compared with Dactinomycin (summary of Table I): roughly comparable in activity to Dactinomycin
[4]
  activity against bacterial growth relative to Actinomicin D: 50%
Rous sarcoma virus
  decrease of development of visible tumors: over 80%
ADVANCED P388 LEUKEMIA; 0.6 Mg/Kg/Inj.
  5 ILS* (increased life span): 150%
  60 DAY "CURES": 0
  SURVIAL TIME MEDIAN: 25 days

## O=NN(CCCl)C(=O)NCCCl [BCNU]
[1]; [5]
  "CURES" (Number/Total): 0/8
  REGRESSION 50+%-PARTIAL (Number/Total): 0/8
  REGRESSION COMPLETE (Number/Total): 0/8

## O=NN(CCCl)C(=O)NC1CCCCC1 [CCNU]
[1]; [5]
  "CURES" (Number/Total): 0/8
  REGRESSION 50+%-PARTIAL (Number/Total): 0/8
  REGRESSION COMPLETE (Number/Total): 0/8

## O=C(O)CCCc1ccc(N(CCCl)CCCl)cc1 [CHLORAMBUCIL]
[1]; [5]
  "CURES" (Number/Total): 0/10
  REGRESSION 50+%-PARTIAL (Number/Total): 0/10
  REGRESSION COMPLETE (Number/Total): 0/10

## O=P1(N(CCCl)CCCl)NCCCO1 (centres unmarked) [CYCLOPHOSPHAMIDE]
[1]; [5]
  "CURES" (Number/Total): 3/8
  REGRESSION 50+%-PARTIAL (Number/Total): 8/8
  […] (Number/Total): 8/8

## Cc1c2oc3c(C)ccc(C(=O)N[C@@H]4C(=O)N[C@H](C(C)C)C(=O)N5CCC[C@H]5C(=O)N(C)CC(=O)N(C)[C@@H](C(C)C)C(=O)O[C@@H]4C)c3nc-2c(C(=O)N[C@@H]2C(=O)N[C@H](C(C)C)C(=O)N3CCC[C@H]3C(=O)N(C)CC(=O)N(C)[C@@H](C(C)C)C(=O)O[C@@H]2C)c(N)c1=O [DACTINOMYCIN, Dactinomycin] (I: T[dV]P[Sar][NMeV] / II: T[dV]P[Sar][NMeV]; ester I:1-I:C, II:1-II:C; linker I:N-II:N via Actinocin(9to1))
P388 leukemia; 0.05 Mg/Kg/Inj.
  5 ILS* (increased life span): 180%
  60 DAY "CURES": 0%
  SURVIAL TIME MEDIAN: 28 days
P388 leukemia; 0.1 Mg/Kg/Inj.
  5 ILS* (increased life span): 115%
  60 DAY "CURES": 12%
  SURVIAL TIME MEDIAN: 21.5 days
ADVANCED P388 LEUKEMIA; 0.15 Mg/Kg/Inj.
  5 ILS* (increased life span): 95%
  60 DAY "CURES": 0
  SURVIAL TIME MEDIAN: 19.5 days

## COc1cccc2c1C(=O)c1c(O)c3c(c(O)c1C2=O)C[C@@](O)(C(C)=O)C[C@@H]3O[C@H]1C[C@H](N)[C@H](O)[C@H](C)O1 [DAUNOMYCIN]
[1]; schedule days 12-17
  "CURES" (Number/Total): 0/12
  REGRESSION 50+%-PARTIAL (Number/Total): 9/12
  REGRESSION COMPLETE (Number/Total): 3/12

## CN(C)/N=N/c1[nH]cnc1C(N)=O [DTIC]
[1]; [5]
  "CURES" (Number/Total): 0/10
  REGRESSION 50+%-PARTIAL (Number/Total): 0/10
  REGRESSION COMPLETE (Number/Total): 0/10

## O=c1[nH]cc(F)c(=O)[nH]1 [FLUOROURACIL]
[1]; schedule days 12,16,20,24
  "CURES" (Number/Total): 0/10
  REGRESSION 50+%-PARTIAL (Number/Total): 8/10
  REGRESSION COMPLETE (Number/Total): 5/10

## N[C@@H](Cc1ccc(N(CCCl)CCCl)cc1)C(=O)O [L-SARCOLYSIN]
[1]; [5]
  "CURES" (Number/Total): 4/8
  REGRESSION 50+%-PARTIAL (Number/Total): 8/8
  REGRESSION COMPLETE (Number/Total): 7/8

## S=c1nc[nH]c2nc[nH]c12 [MERCAPTOPURINE]
[1]; schedule days 12-22
  "CURES" (Number/Total): 0/10
  REGRESSION 50+%-PARTIAL (Number/Total): 9/10
  REGRESSION COMPLETE (Number/Total): 6/10

## CN(Cc1cnc2nc(N)nc(N)c2n1)c1ccc(C(=O)N[C@@H](CCC(=O)O)C(=O)O)cc1 [METHOTREXATE]
[1]; schedule days 12,16,20,24
  "CURES" (Number/Total): 0/10
  REGRESSION 50+%-PARTIAL (Number/Total): 0/10
  REGRESSION COMPLETE (Number/Total): 0/10

## CO[C@@]12[C@H](COC(N)=O)C3=C(C(=O)C(C)=C(N)C3=O)N1C[C@@H]1N[C@@H]12 [MITOMYCIN-C]
[1]; [5]
  "CURES" (Number/Total): 0/10
  REGRESSION 50+%-PARTIAL (Number/Total): 0/10
  REGRESSION COMPLETE (Number/Total): 0/10

## C[C@]12C=CC(=O)C=C1CC[C@@H]1[C@@H]2C(=O)C[C@@]2(C)[C@H]1CC[C@]2(O)C(=O)CO [PREDNISONE]
[1]; schedule days 12,16,20
  "CURES" (Number/Total): 0/10
  REGRESSION 50+%-PARTIAL (Number/Total): 0/10
  REGRESSION COMPLETE (Number/Total): 0/10

## CNNCc1ccc(C(=O)NC(C)C)cc1 [PROCARBAZINE]
[1]; schedule days 12-20
  "CURES" (Number/Total): 0/10
  REGRESSION 50+%-PARTIAL (Number/Total): 0/10
  REGRESSION COMPLETE (Number/Total): 0/10

## S=P(N1CC1)(N1CC1)N1CC1 [THIO-TEPA]
[1]; [5]
  "CURES" (Number/Total): 0/10
  REGRESSION 50+%-PARTIAL (Number/Total): 0/10
  REGRESSION COMPLETE (Number/Total): 0/10

## CC[C@]1(O)C[C@H]2CN(CCc3c([nH]c4ccccc34)[C@@](C(=O)OC)(c3cc4c(cc3OC)N(C=O)[C@H]3[C@@](O)(C(=O)OC)[C@H](OC(C)=O)[C@]5(CC)C=CCN6CC[C@]43[C@@H]65)C2)C1 [VINCRISTINE]
[1]; schedule days 12,16,20
  "CURES" (Number/Total): 0/10
  REGRESSION 50+%-PARTIAL (Number/Total): 10/10
  REGRESSION COMPLETE (Number/Total): 8/10

## L-ASPARAGINASE
[1]; [5]
  "CURES" (Number/Total): 0/10
  REGRESSION 50+%-PARTIAL (Number/Total): 0/10
  REGRESSION COMPLETE (Number/Total): 0/10

## MITHRAMYCIN
[1]; [5]
  "CURES" (Number/Total): 0/7
  REGRESSION 50+%-PARTIAL (Number/Total): 0/7
  REGRESSION COMPLETE (Number/Total): 0/7
